Assay results from paper PMC6934184, “Selective DNA-PKcs inhibition extends the therapeutic index of localized radiotherapy and chemotherapy” (The Journal of Clinical Investigation, 2019).

Experiments:
MCF7 cells = assay: clonogenic survival with 2 Gy IR, DNA repair inhibitors; type: cell-based, Human; conditions: 1 h before and 24 h after IR
Procedure: (§1) Cells were washed in phosphate-buffered saline (PBS), trypsinized and counted. Cells were then reseeded at a known density in drug-free medium into 10 cm dishes (100 - 10 000 cells/dish) and incubated for 8-21 days. Colonies were fixed using Carnoys fixture (75% v/v methanol, 25% v/v acetic acid, Fisher), stained with crystal violet (0.4% w/v in water), and counted using a ColCount automated colony counter (Oxford Optronics). Cell survival was calculated as a percentage of the untreated control.
Alternatively, exponentially growing MCF7 cells were exposed to a range of concentrations of the PARP inhibitor rucaparib, the ATM inhibitor KU55933, the ATR inhibitor VE-821 or NU5455 for 1 hour prior to irradiation with 2 Gy. Cells were then incubated in the continued presence of the DNA repair inhibitors for a further 24 hours prior to replating. […]

SJSA-1 = assay: clonogenic survival with etoposide; type: cell-based, human; conditions: NU5455 1 μM, 24 hours
Procedure: Cell line γH2AX and 53BP1 foci immunofluorescence and quantitation
Cells grown on coverslips or in 96-well plates were treated with 1 or 5 µM NU5455 or DMSO 1 hour prior to irradiation (0, 2.5 or 10 Gy) using an RS 320 X-ray Research System (Gulmay Medical). At set timepoints (15 or 30 minutes, or 1, 4, 5, 6, or 24 hours post-irradiation), cells were washed and fixed in methanol or 3% paraformaldehyde (PFA). […] In A549 and Calu-6, cells were Hoechst stained (5 µg/ml), and the average numbers of γH2AX and 53BP1 foci per cell were quantified from 400 nuclei per sample using an In Cell analyzer 1000 (GE Healthcare). For MCF7 cells, coverslips were mounted using Vectashield mounting medium with DAPI (Vector Labs) and imaged using a Leica TCS SPE confocal fluorescence microscope. Total fluorescence intensity was determined using ImagePro Plus 5.0 software (Media Cybernetics). […]
as §1, with “Cells were then reseeded at a known density in drug-free medium into 10 cm dishes (100 - 10 000 cells/dish) and incubated for 8-21 days.” left out, “control. […]” for “control.”

**Q.** What does the source list for `CN(C(=O)CN1CCOCC1)c1ccc2sc3c(-c4cccc5c(=O)cc(N6CC7CCC(C6)O7)oc45)cccc3c2c1` [NU5455]?
**A.** SER (sensitization enhancement ratio), enhancement of 2 Gy IR clonogenic cell killing (MCF7 cells; at 1 μM): 11.5 fold; SER (sensitization enhancement ratio), enhancement of 2 Gy IR clonogenic cell killing (MCF7 cells; at 3 μM): 38 fold; Fold potentiation of etoposide (LD80, SER80) (SJSA-1): 4.1 fold
